Consider one molecule from US20060035209A1, “Screening method” (priority 2002, published 2006).

Type in all cases: in vivo, rat
One experiment relates to Zucker fatty rats. The experiment can be described thus: Urinary albumin excretion in Zucker fatty rats (24-hour urine pooling, A/G B Test Wako). The source says: (§1) Male Zucker fatty rats (ZF rats, 18 weeks of age, Charles River Japan Inc.), which have hyperinsulinemia and spontaneously develop renal disease, were given oral administration of candesartan cilexetil (angiotensin II type 1 receptor antagonist) in suspension in 0.5% methylcellulose 100 cP once daily for 9 consecutive weeks. For a control group and a normal control group, male Zucker lean rats at the same weeks of age (ZL rats, Charles River Japan Inc.) were given oral administration of 0.5% methylcellulose 100 cP (vehicle) once daily for consecutive days. At 8 weeks of administration, 24-hour urine pooling was conducted, and urinary albumin excretion was measured using the A/G B Test Wako (Wako Pure Chemical Industries, Ltd.). At 9 weeks of administration, kidneys were collected and stored at −80° C. After the sample was disrupted, total RNA was extracted. A primer and a fluorescent probe were prepared on the basis of reported (ibidem) mRNA sequences, and various mRNA expression levels were measured by the real-time quantitative RT-PCR method using ABI PRISM7700 (Applied Biosystems).

The next experiment relates to TSC-22 mRNA. The experiment can be described thus: TSC-22 mRNA expression level in kidneys of Zucker fatty rats (real-time quantitative RT-PCR).
Source text: as §1

Another experiment deals with TGF-β1 mRNA. The experiment can be described thus: TGF-β1 mRNA expression level in kidneys of Zucker fatty rats (real-time quantitative RT-PCR).
Source text: as §1

Where [1] appears, read: Zucker fatty rats, administration of the drug.

Consider `CCOc1nc2cccc(C(=O)OC(C)OC(=O)OC3CCCCC3)c2n1Cc1ccc(-c2ccccc2-c2nnn[nH]2)cc1` (stereo not drawn) [Candesartan cilexetil, candesartan cilexetil], for which the “increase in urinary albumin excretion (in words)” value with Zucker fatty rats (setting [1]) was “suppressed”. Further, the Urinary albumin excretion with Zucker fatty rats (male ZF rats, oral once daily, at 8 weeks of administration, n = 8-9, Mean (ZF vehicle 401.5, ZL vehicle 48.5)) is recorded as 61.7 mg/day. Further, in the experiment on TSC-22 mRNA (setting [1]), the “increase in TSC-22 mRNA expression level in the kidneys (in words)” value is recorded as “suppressed”. Also, the “mRNA expression level of TSC-22 in the kidneys (relative value with the expression level in the kidneys of Zucker lean rats as 1)” value in the experiment on TSC-22 mRNA (male ZF rats, oral once daily, kidneys collected at 9 weeks of administration, n = 8-9, Mean (ZF vehicle 2.4)) worked out at 1.6. In the experiment on TGF-β1 mRNA (setting [1]), the “increase in TGF-β1 mRNA expression level in the kidneys (in words)” value is listed as “suppressed”. Moreover, the “mRNA expression level of TGF-β1 in the kidneys (relative value with the expression level in the kidneys of Zucker lean rats as 1)” value in the experiment with TGF-β1 mRNA (male ZF rats, oral once daily, kidneys collected at 9 weeks of administration, n = 8-9, Mean (ZF vehicle 2.1)) is listed as 1.2.
